US8889662B2, “Method to alter sex ratios in avian offspring” (University of Georgia Research Foundation, Inc., priority 2009, dated 2014)

How the values were obtained:
[1] = system: white leghorn and brown hyline hens; experiment: Example 1: offspring sex after a single maternal CORT injection, chickens; assay type: in vivo, chicken; settings: 2 mg CORT about 19 h after a mid-sequence egg, p=0.002 vs controls, p<0.0001 vs non-injected
Protocol: This experiment was similar to the previous one in that a single injection of CORT was provided at the time of meiotic segregation and the sexes of the resulting eggs were quantified. Laying patterns of female white leghorn and brown hyline hens were monitored and timed. Females that were laying between 1000 and 1200 h EST were included in the experiment. Females were artificially inseminated using pooled semen from 5-10 roosters at two time points prior to treatment.
Approximately 19 h following the appearance of a mid-sequence egg, females received one of three treatments: (1) a high dose of CORT (2 mg in 0.5 ml peanut oil), (2) a control treatment (0.5 ml peanut oil), or (3) no injection treatment. The egg corresponding to the next ovulation event was labeled, collected, and incubated at 37° C. for a period of 7 days to allow for embryonic development. Embryos were separated and sexed using PCR based techniques as described above. The percentage of females producing male offspring in each group were calculated and compared using chi square analyses. […] CORT was quantified using a standard radioimmunoassay and CORT concentrations were log transformed and analyzed using an analysis of variance (ANOVA).

[2] = Example 1: plasma CORT radioimmunoassay after injection, chickens; assay type: in vivo, chicken; settings: hens
Protocol: Approximately 19 h following the appearance of a mid-sequence egg, females received one of three treatments: (1) a high dose of CORT (2 mg in 0.5 ml peanut oil), (2) a control treatment (0.5 ml peanut oil), or (3) no injection treatment. The egg corresponding to the next ovulation event was labeled, collected, and incubated at 37° C. for a period of 7 days to allow for embryonic development. Embryos were separated and sexed using PCR based techniques as described above. The percentage of females producing male offspring in each group were calculated and compared using chi square analyses. Also, as described above, blood samples were taken from a subset of females one hour and four hours after injection to verify that the CORT treatment did, in fact, elevate maternal CORT concentrations at the time of meiotic segregation. CORT was quantified using a standard radioimmunoassay and CORT concentrations were log transformed and analyzed using an analysis of variance (ANOVA).

[3] = system: zebra finch (Taeniopygia guttata); experiment: Example 2: primary sex ratio after hormone injection five hours before ovulation, zebra finches; assay type: in vivo
Protocol: Zebra finch (Taeniopygia guttata) pairs obtained from a breeding colony maintained at The University of Georgia were housed in individual cages and provided feed and water ad libidumn. Birds were kept under a 14 hour (h) light (L):10 h dark (D) light schedule. Egg-laying was monitored daily and eggs marked to record sequence order. Females were injected intraperitoneally after the first or second egg of the clutch was laid with one of three treatments: 20 μg of CORT dissolved in 50 μl peanut oil and 10% ethanol (CORT), 20 μg of progesterone dissolved in […] and 10% ethanol (P), or 50 μl of control peanut oil (C). A fourth set of females received no injection treatment (UN). […] The follicle ovulating 5 hours after injection, was laid approximately 36 hours after injection (FIG. 3). Ovulating follicles exposed to treatments were laid as the 3rd or 4th egg in the sequence (3rd egg if treatment was administered on the day the 1st egg was laid and the 4th egg in the sequence if treatment was administered on the day the 2nd egg was laid). Eggs were allowed to incubate in the nest for 8-12 days prior to collection to allow sufficient embryonic development for DNA extraction and molecular sexing analyses. Occasionally these treatments disrupted the oviposition immediately following the injection. Females that delayed oviposition after treatment were excluded from analysis because it was not possible to determine whether the egg collected the following day was from the ovulation event that occurred immediately following injection or from a delayed oviposition of the follicle ovulated the day prior to injection. Females that delayed oviposition were allowed to complete the clutch after which the treatment was repeated during the next clutch. […] Only 1/10 females treated with progesterone laid successfully. For this reason, progesterone treatments were eliminated from further analyses.
Molecular Sexing. Genomic DNA was extracted from embryonic tissue using a standard salt extraction method (Lambert et al., 2000, Journal of Neuroscience Methods; 95:127-132). Portions of the W-linked avian CHD (CHD-W) on females and its non W-linked homologue (CHD-Z) were amplified using polymerase chain reaction (PCR) with primers P2 and P8 (Griffiths et al., 1998, Mol Ecol; 7:1071-1075). […] The presence of the W chromosome was determined through the visualization of two bands while males were identified when only one band was produced.
Twenty-one target embryos were successfully sexed from control females, 16 from non-injected females, and 18 from CORT treated females. […] Differences in the number of females that produced males was analyzed among treatment groups by performing a logistic regression in StatView (SAS Institute, Cary, N.C. USA) using sex as the response variable (male=1). […]

[4] = Plasma corticosterone in hens after CORT injections (FIG. 9); assay type: in vivo, chicken; settings: 0.5 mg CORT in peanut oil (physiologically high dose)
Protocol: FIG. 9. Plasma corticosterone concentrations in hens after injections of 1.5 mg CORT, 0.5 mg CORT, oil control, and uninjected.
To test for a dose-dependent effect of CORT on sex ratios, female leghorns will be housed in layer cages, provided access to food and water ad libitum and will be randomly divided into one of seven treatment groups (n=72 each). […] To test whether CORT is a mediator in the sex determination process, one group from each of these treatment sets will also receive a dose of RU-486 (0.5 mg dissolved in 500 ul dH20), a glucocorticoid receptor blocker, administered 15 min prior to the injection treatment itself. […] As a result, treatment with RU-486 should not interrupt normal laying cycles. One final group will receive no injection treatment.

C[C@]12C[C@H](O)[C@H]3[C@@H](CCC4=CC(=O)CC[C@@]43C)[C@@H]1CC[C@@H]2C(=O)CO [corticosterone]
likelihood of male embryos compared to controls and non-injected females [1]: significantly more likely to be male
circulating CORT concentrations compared to controls ([2]; 2 mg CORT in 0.5 ml peanut oil, within one hour of injection, p<0.0001): significantly increased circulating CORT concentrations
circulating CORT concentrations compared to controls ([2]; 2 mg CORT, four hours post-injection): This difference disappeared
males produced (primary sex ratio) ([3]; 20 ug intraperitoneally five hours before ovulation, 3rd or 4th egg, control injected 61.9%, uninjected 37.5%): 72%
male embryos produced compared to non-manipulated females (FIG. 5 legend) ([3]; 20 ug, no significant difference from control injected females): produced significantly more male embryos
Proportion male ([3]; eggs laid before treatment by the same treatment group (baseline)): 0.4375
Proportion male ([3]; target eggs (Treatment), 20 ug): 0.72
CORT concentrations reached [4]: below 40 ng/ml
